# Entries after “also recorded” stand apart in the source; their conditions may differ.
# Experiments:
# PGC-1α and related genes [1] = experiment: Gene expression in muscle cell test (C2C12); type: cell-based; settings: C2C12 immature muscle cells, 24 hours
# Protocol: C2C12 immature muscle cells were prepared from the purchase from American Tissue Culture Collection (ATCC, USA). The cells were cultured in Dulbecco's modified Eagle's medium (DMEM, Gibco, USA) supplemented with 10% fetal bovine serum (FBS, USA) in a 5% CO2 incubator at 37° C. until the cells grew to confluency of 70%, while the medium was exchanged every two days. The differentiation into muscle cells was induced by culturing in a medium containing 2% horse serum (HS, Gibco, USA). The muscle cells cultured in the medium containing 2% HS for 4 days were treated with SL with various concentrations. The negative control group was treated with physiological saline with 1/1000 of the volume of the medium. The cells treated with each sample were incubated at 37° C. for 24 hours, and then washed twice with cool saline solution, and RNA was extracted using TRIzol agent (Invitrogen). cDNA was synthesized by using 1 μg/μl of RNA, which has been extracted as above and quantified, and a reverse transcription system (Promega, USA).
# The expression patterns of PGC-1α and related genes were measured by using pre-designed primers and probes (Applied Biosystems; PGC-1α, Mm00447181_m1, GAPDH, and Mm99999915_q1) for the synthesized cDNA and analysis targets (Fndc5, PGC-1α, Erra, UCP1, SOD2, and GPX1). […]
# PGC-1α and related genes [2] = experiment: Gene expression in brain and hippocampus of Huntington's disease models; type: in vivo, mouse; settings: R6/2 mice, oral 0.1 mg/kg/day, 10 weeks
# Text: (§1) In order to investigate the changes in gene expression and cognitive ability by the treatment with SL (3′-SL & 6′-SL) compositions in Huntington's brain disease model, 4-week-old mice were purchased from Central Lab Animal (Korea). Water was freely accessible, and a commercially available pellet feed (Dooyeul Biotech, Korea) was given for one week. At 5 weeks of age, the mice were divided into three groups (composed of eight mice for each group): Eight 5-week-old male c57/BL6 mice (normal mice; initial body weight, average 25.3±4.3 g) treated with a normal diet were used for a control group. […]
# Sialyllactose or DW was orally administered daily. […] The dietary intake and body weight change were measured every 5 days. […]
# The gene expression changes by the treatment with SL (3′-SL & 6′-SL) compositions were quantitatively compared in two main organs (brain and hippocampus) associated with bran diseases. RNA was extracted by TRIzol agent (Invitrogen). cDNA was synthesized by using RNA, which has been extracted as above and quantified, and a reverse transcription system (Promega, USA). The expression patterns of PGC-1α and related genes were measured by using pre-designed primers and probes (Applied Biosystems; PGC-1α, Mm00447181_m1, GAPDH, and Mm99999915_q1) for the synthesized cDNA and analysis targets (Fndc5, PGC-1α, Erra, UCP1, BDNF, SOD2, and GPX1). […]
# [3] = tested on: Huntington's disease model mice (R6/2); experiment: Rotarod travel test in Huntington's disease models; type: in vivo, mouse; settings: R6/2 mice, oral 0.1 mg/kg/day
# Text: as §1
# In addition, the behavior improvement was evaluated through the rotarod travel time changes of the (Huntington's disease model) group, (Huntington's disease model+3′-SL) group, and (Huntington's disease model+6′-SL) group, compared with the normal mouse with a normal diet. […] The rotarod travel time was measured by using a rotarod device (rod accelerating at a revolution speed of 4-40 rpm through 3 minutes, Jungdo Instruments, Korea). After 4-week-old mice were practiced on the rotarod test, the rotarod test was performed from 5 weeks of age, and the mean time to fall was measured. […]
SMILES,"expression levels of analysis targets (Fndc5, PGC-1α, Erra, UCP1, BDNF, SOD2, GPX1) vs negative control (PGC-1α and related genes [1])",expression levels of PGC-1α and related genes vs SL non-administration (Huntington's disease model) group (PGC-1α and related genes [2]),rotarod travel time vs SL non-administration group [3],expression levels of PGC-1α and related genes vs normal control group (PGC-1α and related genes [2])
"CC(=O)N[C@H]1[C@H]([C@H](O)[C@H](O)CO)O[C@@](O[C@H]2[C@@H](O)[C@@H](CO)O[C@@H](O[C@H]3[C@H](O)[C@@H](O)C(O)O[C@@H]3CO)[C@@H]2O)(C(=O)O)C[C@@H]1O (stereo partly drawn) [3′-SL, α-NeuNAc-(2→3)-β-D-Gal-(1→4)-D-Glc]",significant increases; also recorded: lower than that of 6′-SL,relatively low compared with 6′-SL,less than that of 6′-SL,
"CC(=O)N[C@H]1[C@H]([C@H](O)[C@H](O)CO)O[C@@](OC[C@H]2O[C@@H](O[C@H]3[C@H](O)[C@@H](O)[C@H](O)O[C@@H]3CO)[C@H](O)[C@@H](O)[C@H]2O)(C(=O)O)C[C@@H]1O [6′-SL, α-NeuNAc-(2→6)-β-D-Gal-(1→4)-D-Glc]",significant increases,very excellent,increased,somewhat lower

# From patent publication US20190030053A1, “COMPOSITION FOR INCREASING EXPRESSION OF PGC-1alpha” (BENEBIOSIS CO., LTD., priority 2016, published 2019)
